Test results taken from patent US10246462B2, “Chemokine receptor modulators and uses thereof” (FLX Bio, Inc., priority 2016, dated 2019).
Where a name gives a salt, the structure may show the parent alone.

Each compound was assayed against CCR4 (Homo sapiens (Human), UniProt P51679) (assay: Calcium mobilization (Ca Flux) assay).
CCR4, sequence (P51679 whole entry): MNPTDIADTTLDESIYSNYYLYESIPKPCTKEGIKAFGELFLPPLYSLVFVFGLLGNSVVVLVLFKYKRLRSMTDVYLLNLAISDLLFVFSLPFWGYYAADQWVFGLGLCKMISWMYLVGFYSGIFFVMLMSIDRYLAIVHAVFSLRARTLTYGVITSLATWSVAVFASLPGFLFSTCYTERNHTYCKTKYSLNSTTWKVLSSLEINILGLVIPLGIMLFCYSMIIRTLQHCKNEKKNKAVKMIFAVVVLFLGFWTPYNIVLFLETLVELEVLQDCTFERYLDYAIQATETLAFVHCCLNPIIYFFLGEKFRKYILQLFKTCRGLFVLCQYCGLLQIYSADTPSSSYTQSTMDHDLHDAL
Format: cell-based
Procedure: Calcium Mobilization Assay. Calcium mobilization experiments may be performed by labeling the human T-cell line CEM with […] dye (45 min at room temperature), washing with PBS, and re-suspending into flux buffer (HBSS with 1% FBS).
`Cc1nn([C@H](C)c2ccc(Cl)cc2Cl)c2nc(N3CC(C)C(N4CCCC4)C[C@@H]3C)cnc12` (stereo partly drawn) [Example 18, 1-((R)-1-(2,4-Dichlorophenyl)ethyl)-6-((2S)-2,5-dimethyl-4-(pyrrolidin-1-yl)piperidin-1-yl)-3-methyl-1H-pyrazolo[3,4-b]pyrazine hydrochloride] was tested, and the IC50 was 100 to 500 nM.
Compound `C[C@@H]1CN(c2cnc3c(C#N)nn([C@H](C)c4ccc(Cl)cc4Cl)c3n2)CC[C@@H]1N1CCC[C@@H](CC(=O)O)C1` [Example 39, 2-((3S,3′R,4′S)-1′-(3-Cyano-1-((R)-1-(2,4-dichlorophenyl)ethyl)-1H-pyrazolo[3,4-b]pyrazin-6-yl)-3′-methyl-[1,4′-bipiperidin]-3-yl)acetic acid formate] has an IC50 of 100 to 500 nM.
`COC(C[C@@H]1CCCN1C1CCN(c2cnc3c(C)nn([C@H](C)c4ccc(Cl)cc4Cl)c3n2)CC1C)C(=O)O` (mixture of isomers) [Example 55, 3-((2S)-1-(1-(1-((R)-1-(2,4-Dichlorophenyl)ethyl)-3-methyl-1H-pyrazolo[3,4-b]pyrazin-6-yl)-3-methylpiperidin-4-yl)pyrrolidin-2-yl)-2-methoxypropanoic acid 2,2,2-trifluoroacetae] was tested, and the IC50 was greater than 500 nM.
`CCOC(=O)c1nn(C(C)c2ccc(Cl)cc2Cl)c2nc(N3CCC(N4CCCCC4)CC3)cnc12` (racemic) [Example 1, Ethyl 6-([1,4′-bipiperidin]-1′-yl)-1-(1-(2,4-dichlorophenyl)ethyl)-1H-pyrazolo[3,4-b]pyrazine-3-carboxylate hydrochloride] gave an IC50 greater than 500 nM.
For `Cc1nn([C@H](C)c2ccc(Cl)cc2F)c2nc(N3CC[C@H](N4CCC[C@H]4CCC(=O)O)[C@H](C)C3)cnc12` [Example 49, 3-((S)-1-((3R,4S)-1-(1-((R)-1-(4-Chloro-2-fluorophenyl)ethyl)-3-methyl-1H-pyrazolo[3,4-b]pyrazin-6-yl)-3-methylpiperidin-4-yl)pyrrolidin-2-yl)propanoic acid 2,2,2-trifluoroacetate], the IC50 was 100 to 500 nM.
For `CC1CC(c2cnc3c(C(F)(F)F)nn([C@H](C)c4ccc(Cl)cc4Cl)c3n2)=CCC1N1CCC[C@H]1CO` (some centres unmarked) [Example 89], the IC50 was 100 to 500 nM.
For `C[C@H](c1ccc(Cl)cc1Cl)n1nc(C#N)c2ncc(N3CC[C@@H](N4CCCCC4)[C@@H](C)C3)nc21` [Example 24, 1-((R)-1-(2,4-Dichlorophenyl)ethyl)-6-((3′S,4′R)-3′-methyl-[1,4′-bipiperidin]-1′-yl)-1H-pyrazolo[3,4-b]pyrazine-3-carbonitrile hydrochloride], the IC50 was greater than 500 nM.
With `Cc1nn([C@H](C)c2ccc(Cl)cc2Cl)c2nc(N3CCC(C4CCCN(CCC(=O)O)C4)C(C)C3)cnc12` (stereo partly drawn) [Example 67, 3-(1′-(1-((R)-1-(2,4-Dichlorophenyl)ethyl)-3-methyl-1H-pyrazolo[3,4-b]pyrazin-6-yl)-3′-methyl-[3,4′-bipiperidin]-1-yl)propanoic acid hydrochloride] the IC50 was 100 to 500 nM.
`Cc1nn([C@H](C)c2ccc(Cl)cc2Cl)c2nc(N3CC[C@H](N4CCC[C@@H](CC(=O)O)C4)[C@H](CO)C3)cnc12` [Example 65, 2-((3S,3′R,4′S)-1′-(1-((R)-1-(2,4-Dichlorophenyl)ethyl)-3-methyl-1H-pyrazolo[3,4-b]pyrazin-6-yl)-3′-(hydroxymethyl)-[1,4′-bipiperidin]-3-yl)acetic acid hydrochloride] showed an IC50 of 100 to 500 nM.
For `CC1CCCCN1C1CCN(c2cnc3c(C(N)=O)nn(C(C)c4ccc(Cl)cc4Cl)c3n2)CC1` (centres unmarked) [Example 3, 1-(1-(2,4-Dichlorophenyl)ethyl)-6-(2-methyl-[1,4′-bipiperidin]-1′-yl)-1H-pyrazolo[3,4-b]pyrazine-3-carboxamide hydrochloride], the IC50 was greater than 500 nM.
With `Cc1nn([C@H](C)c2ccc(Cl)cc2Cl)c2nc(N3CCC(N4CCC[C@@H]4C)C(C)C3)cnc12` (stereo partly drawn) [Example 21, 1-((R)-1-(2,4-Dichlorophenyl)ethyl)-3-methyl-6-(3-methyl-4-((S)-2-methylpyrrolidin-1-yl)piperidin-1-yl)-1H-pyrazolo[3,4-b]pyrazine hydrochloride] the IC50 was greater than 500 nM.
